27 compounds from ChEMBL document CHEMBL5107956, “Natural products from mangrove sediments-derived microbes: Structural diversity, bioactivities, biosynthesis, and total synthesis” (Eur J Med Chem, 2022) can be followed below.

In brackets after ≈: the same amount, converted by molar mass.

In data set [1] the test system is HL-60. Briefly: Antiproliferative activity against human HL-60 cells assessed as cell growth inhibition measured after 72 hrs by CCK-8 assay. As to conditions: HL-60, 72 h. The class given is functional, cell-based. For orientation: Tetrazolium assays rely on reduction of a dye to a coloured formazan, in cell work by metabolically active cells.
Data set [2] addresses Rho-associated protein kinase 2 (Homo sapiens, UniProt O75116). Put plainly: Inhibition of ROCK2 (unknown origin) by HTRF kinase assay. On the technique in general: TR-FRET usually uses a lanthanide donor and a delayed reading to cut background.
For a further data set, the system named is Candida albicans. Briefly: Antifungal activity against Candida albicans assessed as fungal growth inhibition measured after 20 hrs. The class given is functional.
For data set [3], the system named is A549. Put plainly: Cytotoxicity against human A549 cells assessed as cell growth inhibition measured after 72 hrs by MTT assay. In kind it is functional, cell-based. As to conditions: A549, 72 h.
For data set [4], the system named is HL-60. Briefly: Cytotoxicity against human HL-60 cells assessed as cell growth inhibition measured after 72 hrs by MTT assay. In kind it is functional, cell-based. The following applies: HL-60, 72 h.
A further data set deals with SGC-7901. Put plainly: Cytotoxicity against human SGC-7901 cells assessed as cell growth inhibition measured after 48 hrs by MTT assay. The class given is functional, cell-based. The following applies: SGC-7901, 48 h.
The test system of another data set is OS-RC-2. Briefly: Antiproliferative activity against human OS-RC-2 cells assessed as cell growth inhibition measured after 72 hrs by CCK-8 assay. The class given is functional, cell-based. The following applies: OS-RC-2, 72 h.
The next data set deals with HCT-116. Put plainly: Cytotoxicity against human HCT-116 cells assessed as cell growth inhibition by SRB assay. In kind it is functional, cell-based. A general note: Sulforhodamine B stains cellular protein and so reports cell mass.
Another data set concerns SW-620. Briefly: Cytotoxicity against human SW-620 cells assessed as cell growth inhibition by SRB assay. The class given is functional, cell-based.
In data set [5] the test system is MCF7. Put plainly: Cytotoxicity against human MCF7 cells assessed as cell growth inhibition. The class given is functional, cell-based.
For data set [6], the system named is HepG2. Briefly: Cytotoxicity against human HepG2 cells assessed as cell growth inhibition. In kind it is functional.
Data set [7] can be described thus: Cytotoxicity against human HM02 cells assessed as cell growth inhibition. In kind it is functional.
Data set [8] deals with HL-60. Put plainly: Antiproliferative activity against human HL-60 cells assessed as cell growth inhibition by MTT assay. The class given is functional, cell-based.
The subject of data set [9] is A549. Briefly: Antiproliferative activity against human A549 cells assessed as cell growth inhibition by MTT assay. In kind it is functional, cell-based.
In data set [10] the target is Prostaglandin G/H synthase 2 (Homo sapiens) (UniProt P35354). Put plainly: Inhibition of COX2 (unknown origin) at 20 nM relative to control.
Data set [11] is described as follows: Antioxidant activity assessed as free radical scavenging activity incubated for 30 mins by microplate reader analysis. In kind it is functional.
In another data set the test system is Staphylococcus aureus. Put plainly: Antibacterial activity against Staphylococcus aureus ATCC 25923 assessed as bacterial growth inhibition. In kind it is functional, organism-based.
A short description of data set [12]: Antiproliferative activity against human Pancreatic cancer cell assessed as cell growth inhibition measured after 24 hrs by CCK-8 assay. The class given is functional, cell-based.
The test system of the next data set is P388. Briefly: Cytotoxicity against mouse P388 cells assessed as cell growth inhibition measured after 72 hrs by MTT assay. The class given is functional, cell-based. The following applies: Mus musculus, P388, 72 h.
A further data set deals with A-375. Briefly: Cytotoxicity against human A-375 cells assessed as cell growth inhibition by MTT assay. The class given is functional, cell-based.
Data set [13] concerns A549. Briefly: Cytotoxicity against human A549 cells assessed as cell growth inhibition by MTT assay. The class given is functional, cell-based.
Data set [14] relates to MCF7. Put plainly: Cytotoxicity against human MCF7 cells assessed as cell growth inhibition by MTT assay. In kind it is functional, cell-based.
In data set [15] the test system is HepG2. Briefly: Cytotoxicity against human HepG2 cells assessed as cell growth inhibition by MTT assay. In kind it is functional, cell-based.
A short description of data set [16]: Toxicity in brine shrimp assessed as induction of lethality. The following applies: artemia salina; read-out: LD50 (the source's name).
Data set [17] is described as follows: Antioxidant activity assessed as free radical scavenging activity incubated for 30 mins under dark condition by microplate reader analysis. In kind it is functional.

Rho-associated protein kinase 2, sequence (O75116 whole entry): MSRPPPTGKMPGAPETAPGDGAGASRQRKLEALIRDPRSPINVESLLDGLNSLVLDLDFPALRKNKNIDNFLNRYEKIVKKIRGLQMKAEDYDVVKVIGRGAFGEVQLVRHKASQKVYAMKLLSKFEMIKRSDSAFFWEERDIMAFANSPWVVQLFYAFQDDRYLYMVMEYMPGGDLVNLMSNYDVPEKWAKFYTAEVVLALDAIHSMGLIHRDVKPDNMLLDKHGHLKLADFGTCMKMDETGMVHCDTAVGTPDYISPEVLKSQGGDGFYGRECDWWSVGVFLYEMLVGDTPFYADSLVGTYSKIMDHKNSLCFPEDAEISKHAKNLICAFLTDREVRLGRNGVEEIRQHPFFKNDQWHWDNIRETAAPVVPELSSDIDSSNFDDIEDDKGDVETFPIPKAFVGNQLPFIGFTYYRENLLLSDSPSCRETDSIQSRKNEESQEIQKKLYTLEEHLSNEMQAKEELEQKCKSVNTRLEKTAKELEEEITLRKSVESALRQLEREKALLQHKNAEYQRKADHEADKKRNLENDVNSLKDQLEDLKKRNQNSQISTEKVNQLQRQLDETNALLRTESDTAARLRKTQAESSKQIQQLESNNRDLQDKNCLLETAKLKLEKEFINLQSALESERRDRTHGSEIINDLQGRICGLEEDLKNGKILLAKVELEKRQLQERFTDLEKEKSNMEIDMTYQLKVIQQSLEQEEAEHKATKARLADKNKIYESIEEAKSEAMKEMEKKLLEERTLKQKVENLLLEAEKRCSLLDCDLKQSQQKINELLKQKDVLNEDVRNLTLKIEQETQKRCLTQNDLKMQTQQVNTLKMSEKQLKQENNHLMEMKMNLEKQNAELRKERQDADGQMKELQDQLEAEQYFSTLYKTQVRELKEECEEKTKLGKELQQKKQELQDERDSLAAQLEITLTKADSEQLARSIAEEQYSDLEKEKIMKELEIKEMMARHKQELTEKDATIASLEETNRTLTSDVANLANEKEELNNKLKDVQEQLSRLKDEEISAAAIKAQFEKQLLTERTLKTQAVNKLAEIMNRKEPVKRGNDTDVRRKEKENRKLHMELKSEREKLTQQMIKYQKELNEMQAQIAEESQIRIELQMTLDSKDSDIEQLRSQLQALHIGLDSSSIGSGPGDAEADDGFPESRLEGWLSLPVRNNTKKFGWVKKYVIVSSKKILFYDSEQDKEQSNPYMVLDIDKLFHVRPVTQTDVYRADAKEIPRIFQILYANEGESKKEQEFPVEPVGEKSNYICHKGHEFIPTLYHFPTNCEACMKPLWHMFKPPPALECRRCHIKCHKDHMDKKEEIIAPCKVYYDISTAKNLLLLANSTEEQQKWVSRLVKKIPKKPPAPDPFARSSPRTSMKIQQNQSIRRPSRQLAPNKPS
Prostaglandin G/H synthase 2 (Homo sapiens), sequence (P35354 whole entry, looked up): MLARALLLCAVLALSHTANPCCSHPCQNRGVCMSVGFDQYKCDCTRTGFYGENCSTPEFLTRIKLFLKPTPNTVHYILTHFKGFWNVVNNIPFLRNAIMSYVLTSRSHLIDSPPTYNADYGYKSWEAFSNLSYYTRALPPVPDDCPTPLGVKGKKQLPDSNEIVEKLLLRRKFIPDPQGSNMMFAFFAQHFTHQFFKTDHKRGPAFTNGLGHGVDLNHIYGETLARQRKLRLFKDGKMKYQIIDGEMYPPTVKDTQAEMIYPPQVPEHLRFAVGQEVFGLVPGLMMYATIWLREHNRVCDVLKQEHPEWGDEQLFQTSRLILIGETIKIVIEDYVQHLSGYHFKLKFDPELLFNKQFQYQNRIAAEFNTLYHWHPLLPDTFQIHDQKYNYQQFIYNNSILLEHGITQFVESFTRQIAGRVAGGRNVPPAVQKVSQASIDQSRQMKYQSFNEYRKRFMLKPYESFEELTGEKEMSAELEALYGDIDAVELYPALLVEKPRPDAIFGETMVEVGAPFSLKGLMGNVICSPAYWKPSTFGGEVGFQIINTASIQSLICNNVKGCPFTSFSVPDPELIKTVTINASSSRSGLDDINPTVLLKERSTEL

In the case of `COc1nc(C/C=C(\C)C/C=C/C(C)=C/[C@@H](C)/C=C/[C@@H](C)OC)c(C)c(O)c1OC`, the IC50 (commonly the concentration needed to halve the response being measured) with HL-60 [1] is < 100 nM.

As to `CCOC(=O)[C@@H](Cc1c(O)cc(C)c2c(O)c3c(cc12)[C@@H](O)CCC3=O)C(=O)OC`, it took 960 nM to reach half-maximal inhibition in data set [2] (IC50). In the case of `CCCCCC[C@H]1C(=O)O[C@H](C)[C@H](NC(=O)c2cccc(NC=O)c2O)C(=O)O[C@@H](C)[C@@H]1OC(C)=O`, in the data set with Candida albicans, the MIC (commonly the least concentration at which growth counts as inhibited) was 5 µg/mL (≈ 9.87 µM).

`CC1(C)C=Cc2c(ccc3c2[N+]([O-])=C2C3=C[C@@]34NC(=O)[C@]5(CCCN5C3=O)C[C@@H]4C2(C)C)O1`: the values for the IC50 in the data set with A549 [3] and in the data set on HL-60 [4] were 1920 nM and 3.02 µM, respectively.

In the case of `CC[C@H]1/C=C/C[C@H](CC(C)C)OC(=O)/C(C)=C\[C@H]2C(=O)NC3=CC(=O)c4c(cc(C)c(O)c4C(=O)CC1)[C@@]32O`, in the data set with SGC-7901, the IC50 came out at 2.8 µM.

As for `C/C=C(\C)[C@H](O)[C@H](C)/C=C(/C=C/C/C(C)=C/Cc1nc(OC)c(OC)c(O)c1C)CC`, the IC50 in the data set with OS-RC-2 came out at 4.5 µM. Consider `CCCCC[C@H]1C(=O)O[C@H](C)[C@H](NC(=O)c2cccc(NC=O)c2O)C(=O)O[C@@H](C)[C@@H]1OC(=O)[C@@H](C)C(C)C`, for which the MIC in the data set on Candida albicans came to 5 µg/mL (≈ 9.11 µM).

In the case of `Cc1cccc2cc3c(c(O)c12)C(=O)CC[C@@H]3O`, the IC50 in the data set on HCT-116 and in the data set with SW-620 was 630 nM throughout. Regarding `CC(C)CCC[C@H]1CCCCC(=O)O1`, the GI50 (in the data set with MCF7 [5]; with HepG2 [6]; in [7]) was 0.11 µg/mL (≈ 0.555 µM) throughout. Regarding `COC1=C(CO)O[C@@H]2C[C@@]1(OC)n1c3ccccc3c3c4c(c5c6ccccc6n2c5c31)C(=O)NC4`, the figures for the IC50 with HL-60 [8] and in the data set with A549 [9] were 1400 nM and 5 µM, respectively. As for `CCOC(=O)[C@]1(Cc2ccccc2)OC(=O)C(O)C1c1ccc(O)cc1` (stereo partly specified), the inhibition – broadly, the drop in the measured response relative to a control, in per cent – in data set [10] was 98.3%. With `O=C(NCCCCO)c1ccc(O)c(O)c1`, the concentration for half-maximal inhibition (IC50) in data set [11] came to 4.7 µM. `CCOC(=O)[C@]1(Cc2ccc(O)c(CC3OC3(C)C)c2)OC(=O)C(O)C1c1ccc(O)cc1` (stereo partly specified): the IC50 in the data set on Staphylococcus aureus was 21.3 µM. Regarding `CC[C@H]1[C@@H]2C=C[C@@H]3[C@H]4C/C=C\C(=O)NCCC[C@H]5NC(=O)C(=C5O)C(=O)/C=C/[C@@H]4C[C@@H]3[C@H]2C[C@H]1C`, the half-maximal inhibitory concentration (IC50) in data set [12] worked out at 1300 nM. Consider `C=CC(C)(C)c1[nH]c2ccccc2c1/C=C1\NC(=O)[C@@]2(C[C@@H](C)C=C[C@@H]2/C=C/c2c(O)cc(CC=C(C)C)c(O)c2C=O)NC1=O`, for which the IC50 in the data set on P388 was determined as 11.3 µM. For `COc1ccc(C[C@@H]2NC(=O)[C@@]34OC(=O)O/C=C/[C@@](C)(O)C(=O)[C@@H](C)C/C=C/[C@H]3C(O)C(C)=C(C)[C@@H]24)cc1` (stereo partly specified), the IC50 in the data set on A-375, with A549 [13], in the data set on MCF7 [14] and in the data set with HepG2 [15] was 470 nM in each case. Consider `C=C(C(C)=O)[C@H](O)[C@H](C)/C=C(C)/C=C/C/C(C)=C/Cc1nc(OC)c(OC)c(O)c1C`, for which the IC50 in the data set with OS-RC-2 was 2.2 µM. In the case of `CC[C@H]1/C=C/C[C@H](CC(C)C)OC(=O)/C(C)=C\[C@@H]2C(=O)NC3=CC(=O)c4c(cc(C)c(O)c4C(=O)CC1)[C@@]32O`, the 50% inhibitory concentration (IC50) in the data set on SGC-7901 amounted to 4.7 µM. `C=CC(C)(C)c1[nH]c2ccccc2c1/C=C1\NC(=O)[C@]2(C[C@H](C)C=C[C@@H]2CCc2c(O)cc(CC=C(C)C)c(O)c2C=O)NC1=O` (stereo in doubt; 251): the IC50 in the data set with P388 was determined as 3.43 µM. `CCOC(=O)[C@H](Cc1c(O)cc(C)c2c(O)c3c(cc12)[C@@H](O)CCC3=O)C(=O)OC`: in data set [2], the IC50 was 960 nM. With `CC[C@H]1[C@H]2[C@H](C[C@H]1C)[C@H]1C[C@H]3/C=C/C(=O)C4=C(O)[C@@H](CCCNC(=O)/C=C\C[C@@H]3[C@H]1[C@@H]1O[C@@H]12)NC4=O`, in data set [12], the IC50 was determined as 1300 nM. For `CCCCC[C@@H]1Cc2cc(O)c(C)c(O)c2C(=O)O1`, in data set [16], the LC50 amounted to 7.7 µg/mL (≈ 29.1 µM). For the compound `O=C1O/C(=C\c2ccc(O)cc2)C(O)=C1c1ccc(O)cc1` [ASPULVINONE E], the IC50 with Staphylococcus aureus is 26.1 µM. Turning to `C/C=C/[C@H](OC)[C@H](C)/C=C(C)/C=C/C/C(C)=C/Cc1nc(OC)c(OC)c(O)c1C`, the IC50 in the data set on HL-60 [1] is < 100 nM. Consider `O=C(O)CCCNC(=O)c1ccc(O)c(O)c1`, for which, in [11], the IC50 stood at 4.7 µM. Regarding `COc1cc(C)c2c(O)c3c(cc2c1)[C@@H](O)CCC3=O`, the IC50 in the data set with HCT-116 and in the data set with SW-620 was 630 nM in each case.

For the compound `C/C=C/C=C/CCc1c(O)ccc(O)c1CO`, the IC50 in [17] was determined as 9.3 µM.
